From US5589497A, “Phenylimidazolidines” (Uclaf; Roussel, priority 1992, dated 1996)

Biological target: T1, androgenic receptors (rat prostate cytosol) (Rattus norvegicus, UniProt P15207)
T1 construct: from tissue; host or cells: prostate cytosol (209,000 g supernatant) of castrated male Sprague Dawley EOPS rats
T1 sequence (P15207 1-902): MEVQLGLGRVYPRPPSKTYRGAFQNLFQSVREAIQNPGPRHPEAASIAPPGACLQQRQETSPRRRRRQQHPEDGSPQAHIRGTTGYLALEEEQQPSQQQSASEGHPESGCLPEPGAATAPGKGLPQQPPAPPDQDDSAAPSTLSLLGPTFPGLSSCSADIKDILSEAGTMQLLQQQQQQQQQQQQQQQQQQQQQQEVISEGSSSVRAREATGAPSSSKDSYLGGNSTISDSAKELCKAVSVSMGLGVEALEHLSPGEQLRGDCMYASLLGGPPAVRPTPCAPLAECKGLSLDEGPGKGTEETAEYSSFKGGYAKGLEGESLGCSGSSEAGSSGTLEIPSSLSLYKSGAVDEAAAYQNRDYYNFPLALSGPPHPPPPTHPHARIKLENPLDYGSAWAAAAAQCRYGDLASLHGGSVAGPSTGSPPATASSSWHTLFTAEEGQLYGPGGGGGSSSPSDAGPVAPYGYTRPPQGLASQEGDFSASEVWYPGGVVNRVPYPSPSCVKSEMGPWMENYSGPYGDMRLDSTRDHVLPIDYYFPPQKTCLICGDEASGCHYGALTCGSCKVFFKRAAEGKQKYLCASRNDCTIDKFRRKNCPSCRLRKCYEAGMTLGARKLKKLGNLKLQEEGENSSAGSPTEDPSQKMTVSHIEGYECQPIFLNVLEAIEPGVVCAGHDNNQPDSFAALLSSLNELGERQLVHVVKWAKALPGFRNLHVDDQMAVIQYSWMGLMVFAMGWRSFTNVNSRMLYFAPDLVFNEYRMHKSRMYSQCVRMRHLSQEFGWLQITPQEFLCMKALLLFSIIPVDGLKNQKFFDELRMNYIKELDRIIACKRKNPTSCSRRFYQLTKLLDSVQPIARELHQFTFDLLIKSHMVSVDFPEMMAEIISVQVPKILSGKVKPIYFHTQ
Experiment: Study of androgenic receptors: relative binding affinity (RBA) versus tritiated testosterone in prostate cytosol of castrated rats
Set-up: species or system male rats of the Sprague Dawley EOPS strain
Conditions: 24 H incubation; testosterone=100; RBA=100(CH)/(CX)
Procedure: Male rats of the Sprague Dawley EOPS strain weighing 180 to 200 g, castrated 24 hours previously, were killed and the prostate was removed, weighed and homogenized at 0° C. with a potter glass in a buffered solution (Tris 10 mM, saccharose 0.25M, PMSF (phenyl methane sulfonyl fluoride) 0.1 mM, sodium molybdate 20 mM, HCl pH 7.4 into which was added extemporaneously […] of DTT (DL dithiothreitol) at a rate of 1 g of tissue per 8 ml of buffer solution. The homogenate was then ultracentrifuged at 0° C. for 30 minutes at 209,000 g and the aliquots of supernatant (=cytosol) were incubated for 30 minutes and 24 hours with a concentration (T) of tritiated testosterone and in the presence of increasing concentrations (0 to 2500×10^-9 M) of cold testosterone or the test products. The concentration of bound tritiated testosterone (B) was then measured for each incubate by adsorption method of carbon-dextran. The relative affinity of bonding (RBA) was calculated.
The following two curves were graphed: the percentage of the bound tritiated hormone B/T as a logarithmic function of the concentration of the cold hormone and B/T as a logarithmic function of the concentration of the tested cold product. The line of the equation I50 =(B/Tmax+B/Tmin)/2 was determined.
B/T max=% of the bound tritiated hormone for an incubation of this tritiated hormone at concentration (T). […]

Row | Structure (SMILES) | relative affinity of bonding (RBA)
1 | CCC1(CC)C(=O)N(c2ccc(C#N)c(C(F)(F)F)c2)C(=S)N1C [Example 5, 4-(4,4-diethyl-3-methyl-5-oxo-2-thioxo-1-imidazolidinyl)-2-trifluoromethyl-benzonitrile] | 8
2 | CN1C(=S)N(c2ccc(C#N)c(C(F)(F)F)c2)C(=O)C12CCCC2 [Example 3, 4-(1-methyl-4-oxo-2-thioxo-1,3-diazaspiro(4,4)nonan-3-yl)-2-trifluoromethyl-benzonitrile] | 27
